One test concerns T. cruzi CA-I/72. The experiment in a line: T. cruzi in vitro assay, C2C12 host cell. In kind it is cell-based, Trypanosoma cruzi.
Test [1] relates to Leishmania major amastigotes. The experiment in a line: Leishmania major amastigote assay. In kind it is cell-based. The settings on record: read-out: L. maj EC50.
The test system of another test is T. brucei. In words: T. brucei proliferation inhibition assay. The format is cell-based, Trypanosoma brucei. The following applies: read-out: T. brucei EC50 ± S.D.
The next test deals with L. donovani. The experiment in a line: L. donovani in vitro assay. In kind it is cell-based, Leishmania donovani. The following applies: Leishmania donovani, read-out: L. don EC50, B10R host cell line.
[2] abbreviates: Trypanosoma cruzi, C2C12, read-out: T. cruzi EC50.

Read-outs that look alike come from different tables or passages of the source.

By EC50 is commonly meant the concentration that produces a half-maximal response.

For the compound “7-(4-((4-Methyl-1,4-diazepan-1-yl)sulfonyl)phenyl)-N-(4-(trifluoromethoxy)phenyl)cinnolin-4-amine [Compound 20b]”, the EC50 in the test with T. cruzi CA-I/72 (read-out: T. cruzi EC50, C2C12 host cell) was greater than 10 µM; in test [1] (amastigotes), greater than 3.6 µM; in the test with T. brucei it was 580 ± 250 nM.
On to `C[C@@H]1[C@H](O)[C@@H](C)/C=C/C=C/C=C/C=C/C=C/C=C/C=C/[C@H](O[C@@H]2O[C@H](C)[C@@H](O)[C@H](N)[C@@H]2O)C[C@@H]2O[C@](O)(C[C@@H](O)C[C@@H](O)[C@H](O)CC[C@@H](O)C[C@@H](O)CC(=O)O[C@H]1C)C[C@H](O)[C@H]2C(=O)O` [Amphotericin B, reference compound], for which, in the test with L. donovani, the concentration giving a half-maximal response (EC50) was 0.07 µM.
Regarding `O=C(Cn1ccnc1[N+](=O)[O-])NCc1ccccc1` [Benznidazole, reference compound], the EC50 in the test on T. cruzi CA-I/72 (setting [2]) turned out to be 3.77 µM.
In the case of `Cc1ccc(Nc2cnnc3ccc(-c4ccc(S(=O)(=O)N5CCN(C)CC5)cc4)cc23)cn1` [Compound 13a, 6-(4-((4-Methylpiperazin-1-yl)sulfonyl)phenyl)-N-(6-methylpyridin-3-yl)cinnolin-4-amine], the concentration giving a half-maximal response (EC50) with T. cruzi CA-I/72 (setting [2]) was 8.2 µM; in the test on L. donovani, greater than 10 µM; in test [1] (Leishmania major) it was greater than 21 µM; in the test with T. brucei (Trypanosoma brucei), 1300 ± 27 nM.
In the case of `CN1CCN(S(=O)(=O)c2ccc(-c3ccc4nncc(Nc5ncccn5)c4c3)cc2)CC1` [Compound 16a, 6-(4-((4-Methylpiperazin-1-yl)sulfonyl)phenyl)-N-(pyrimidin-2-yl)cinnolin-4-amine], the concentration for a half-maximal effect (EC50) in the test on T. cruzi CA-I/72 (setting [2]) was greater than 10 µM; in the test on L. donovani, 9 µM; in test [1] (Leishmania major), greater than 22 µM.
`COc1ccc(Nc2cnnc3cc(-c4ccc(S(=O)(=O)N5CCN(C)CC5)cc4)ccc23)cc1` [Compound 18b, N-(4-Methoxyphenyl)-7-(4-((4-methylpiperazin-1-yl)sulfonyl)phenyl)cinnolin-4-amine]: the EC50 with T. cruzi CA-I/72 (setting [2]) was 3.2 µM; in test [1] (Leishmania major), greater than 20 µM; with T. brucei (Trypanosoma brucei), 12000 ± 630 nM.
For `COc1ccc(Nc2cnnc3cc(-c4ccc(S(=O)(=O)N5CCN(C)CC5)cc4)ccc23)nc1` [Compound 19b, N-(5-Methoxypyridin-2-yl)-7-(4-((4-methylpiperazin-1-yl)sulfonyl)phenyl)cinnolin-4-amine], the EC50 with T. cruzi CA-I/72 (setting [2]) was greater than 10 µM; in the test on L. donovani, greater than 10 µM; in test [1] (Leishmania major), greater than 20 µM.
On to `COc1ccc(Nc2cnnc3cc(-c4ccc(N5CCN(C)CC5)cc4)ccc23)cc1` [Compound 23b, N-(4-Methoxyphenyl)-7-(4-(4-methylpiperazin-1-yl)phenyl)cinnolin-4-amine], for which the EC50 is 1.1 µM in the test with T. cruzi CA-I/72 (setting [2]), greater than 24 µM in test [1] (Leishmania major) and 78 ± 31 nM in the test with T. brucei (Trypanosoma brucei).
Take `CN1CCN(c2ncc(-c3ccc4nncc(Nc5ncc(Cl)cn5)c4c3)cn2)CC1` [Compound 26a, N-(5-Chloropyrimidin-2-yl)-6-(2-(4-methylpiperazin-1-yl)pyrimidin-5-yl)cinnolin-4-amine]: the results for the EC50 (with T. cruzi CA-I/72 (setting [2]); in the test on L. donovani; in test [1] (Leishmania major)) were 2.7 µM, greater than 10 µM and greater than 4.6 µM, respectively.
Regarding `COc1ccc(Nc2cnnc3cc(-c4cnc(N5CCN(C)CC5)nc4)ccc23)cc1` [Compound 27b, N-(4-Methoxyphenyl)-7-(2-(4-methylpiperazin-1-yl)pyrimidin-5-yl)cinnolin-4-amine], the values for the EC50 (with T. cruzi CA-I/72 (setting [2]); in test [1] (Leishmania major); in the test on T. brucei (Trypanosoma brucei)) were 3.3 µM, greater than 4.7 µM and 360 ± 76 nM, respectively.
The corresponding values for `COc1ccc(Nc2cnnc3cc(-c4cnc(N5CCCN(C)CC5)nc4)ccc23)cc1` [Compound 30b, N-(4-Methoxyphenyl)-7-(2-(4-methyl-1,4-diazepan-1-yl)pyrimidin-5-yl)cinnolin-4-amine] are 0.29 µM, greater than 23 µM and 240 ± 88 nM.
The corresponding values for `COc1cnc(Nc2cnnc3ccc(-c4ccc(S(=O)(=O)N5CCCN(C)CC5)cc4)cc23)nc1` [Compound 35a, N-(5-Methoxypyrimidin-2-yl)-6-(4-((4-methyl-1,4-diazepan-1-yl)sulfonyl)phenyl)cinnolin-4-amine] are greater than 10 µM, greater than 20 µM and 270 ± 8 nM.
